Experimental data reported in patent publication EP1056460B1, “PHARMACEUTICAL PREPARATIONS FOR SELECTIVELY SUPPLEMENTING OESTROGEN DEFICIENCY IN THE CENTRAL NERVOUS SYSTEM” (priority 1998, dated 1999).

Legend:
[1] = tested on: Oxytozin-Rezeptoren; assay: Density of oxytocin receptors in brain and myometrium by 125I-OVTA autoradiography after 7 days of treatment; type: in vivo, Ratten; conditions: 1 µg daily s.c. for 7 days
From the text: Jede Säule repräsentiert x ± SEM von 4-5 Einzelbestimmungen.

[2] = Serum concentration of 17b-Estradiol after 7 days of subcutaneous treatment (biotransformation); type: in vivo, Ratten; conditions: ovariectomised rats, daily s.c. for 7 days: 17a-Estradiol 100 µg, prototype 30 µg, 17b-Estradiol 1 µg; placebo below detection limit
From the text: Sternzeichen bezeichnen signifikante Differenzen im Vergleich zu den Werten, die bei Placebo-behandelten Tieren gemessen wurden; die Letzteren waren unterhalb der Nachweisgrenze der Methode; jede Behandlungsgruppe bestand aus 7 Tieren.

[3] = tested on: Endometriums; assay: Computer-aided measurement of endometrium thickness in uterus preparations; type: in vivo, Ratten; conditions: ovariectomised rats, 1 µg daily s.c. for 7 days
[4] = tested on: Uterus; assay: Uterus weight after 14 days of daily subcutaneous treatment (cognition experiment); type: in vivo, Wistar-Ratten; conditions: for Uterusgewichte (x ± SEM): after 14 days of daily s.c. treatment: 17b-Estradiol 1 µg, 17a-Estradiol 100 µg, prototype 30 µg, n = 8-10, OVX 53 ± 2
From the text: (§1) Eine Korrelation zwischen Serum-Estrogenspiegel und kognitiver Leistung wurde auch im Tierversuchsmodell nachgewiesen (Kondo Y, Suzuki K, Sakuma Y, Estrogen aleviates cognitive dysfunction following transient brain ischemia in ovariectomized gerbils, Neurosci Lett 238: 45-48, 1997). […] Die gesamte Behandlungsdauer war 14 Tage. Am 5. und 6. Behandlungstag wurden Trainingssitzungen zum Erlernen eines konditionierten Escape-Verhaltens nach einer etablierten Methode (Diaz-Veliz G et al., Influence of the estrous cycle, ovariectomy and estradiol replacement upon the acquisition of conditioned avoidance responses in rats, Physiol Behav 46: 397-401, 1989) durchgeführt. Jedes Tier wurde in einer Sitzung 50 Mal der Kombination aus einem unbedingten (elektrische Reizung) und zwei konditionierenden Stimuli (Licht- und Schall-Signal) exponiert. Am 7. Behandlungstag wurde die Retention des erlernten Verhaltensmusters getestet. Nach einer 6-tägigen Unterbrechung der Lernsitzungen, wurde am 14. Behandlungstag die Extinktion des erlernten konditionierten Verhaltens ermittelt. Die Anzahl der korrekten Verhaltensreaktionen (Escape in das "sichere" Abteil des Apparats innerhalb von drei Sekunden nach Präsentation der konditionierenden Signale) aus 50 aufeinanderfolgenden Expositionen wurde als Kriterium für die Bewertung der Retention bzw. Extinktion des erlernten Verhaltens verwendet.

[5] = tested on: Oxytocin-Gens; assay: Oxytocin mRNA in the hypothalamic paraventricular nucleus by in-situ hybridisation after chronic treatment in vivo; set-up: species or system Wistar-Ratten; conditions: ovariectomised rats, 0,01, 0,1 and 1 µg daily s.c. for 7 days; effect of the prototype very similar to 17b-Estradiol
From the text: Geschlechtsreife (drei Monate alt, Gewicht 250±30 g) weibliche Wistar-Ratten (Tierzucht Schönwalde GmbH, Deutschland) wurden unter Ketamin-Narkose ovarektomiert. […] Unmittelbar nach der Tötung der Tiere, wurden die Uterus-Feuchtgewichte (bezogen auf 100 g Körpergewicht) ermittelt. […] Behandlungsbedingte Veränderungen in der Transkription des Oxytocin-Gens wurden durch densitometrische Messungen der spezifischen Hybridisierungssignale innerhalb der definierten anatomischen Stukturen quantifiziert.
(§2) Jeder Punkt stellt x ± SEM von 5-7 Einzelbestimmungen.

[6] = tested on: bcl-2; assay: bcl-2 transcripts in the dentate gyrus of the hippocampus by in-situ hybridisation after chronic treatment in vivo; set-up: species or system Wistar-Ratten; conditions: ovariectomised rats, 0,01, 0,1 and 1 µg daily s.c. for 7 days; effect of the prototype identical to equal doses of 17b-Estradiol
From the text: Das Untersuchungsmaterial stammte von Tieren, die im unter Beispiel 3 beschriebenen Experiment behandelt wurden. […] Bcl-2-Transkripte wurden in Hirnschnitten durch in-situ-Hybridisierung mit einer spezifischen Oligonukleotid-Sonde (Clark RSB et al., Apoptosis-suppressor gene bcl-2 expression after traumatic brain injury in rats, J Neurosci 17: 9172-9182, 1997) dargestellt, und nach der im Beispiel 3 beschriebenen Methode densitometrisch quantifiziert.

[7] = tested on: kognitive Leistung; assay: Conditioned escape behaviour (retention and extinction) in ovariectomised rats after chronic treatment; type: in vivo, Wistar-Ratten; conditions: 30 µg daily s.c., retention tested on day 7
From the text: as §1

[8] = tested on: Alpha-Isoform des Estrogenrezeptors (ERa); assay: Activation of transcription of an ERa-dependent luciferase reporter gene in MCF-7/2A cells; type: cell-based; conditions: EREwtcLUC reporter, 10^-11 to 10^-8 M, 48 h, fold lower than 17b-Estradiol
From the text: Brustkrebszellen MCF-7/2A, die die Alpha-Isoform des Estrogenrezeptors (ERa) exprimieren, wurden mit dem Reporter-Plasmid EREwtcLUC stabil transfiziert. Der Reporter enthält den Estrogen-Response Element (ERE) von Vitellogenin, einen Thymidinkinase-Promotor und das Luciferase-codierende Gen von Photinus pyralis. […] Die Zellen wurden lysiert und die Transkription des Luciferase-Reportergens wurde durch Bestimmung der Luciferase-Aktivität mit einem spezifischen Testansatz (Serva/Promega, Deutschland) ermittelt.
Die Figur stellt die Mittelwerte von zwei unabhängigen Versuchen dar.

[9] = tested on: Uterus; assay: Uterus wet weight after chronic subcutaneous application (osmotic minipumps, 7 days) in ovariectomised rats; type: in vivo, Wistar-Ratten
From the text: Geschlechtsreife (drei Monate alt, Gewicht 250±30 g) weibliche Wistar-Ratten (Tierzucht Schönwalde GmbH, Deutschland) wurden unter Ketamin-Narkose ovarektomiert. […] Am 7. Behandlungstag wurden die Tiere getötet und die Uterus-Feuchtgewichte (bezogen auf 100 g Körpergewicht) ermittelt.
Geschlechtsreife (drei Monate alt, Gewicht 250±30 g) weibliche Wistar-Ratten (Tierzucht Schönwalde GmbH, Deutschland) wurden unter Ketamin-Narkose ovarektomiert. […] Unmittelbar nach der Tötung der Tiere, wurden die Uterus-Feuchtgewichte (bezogen auf 100 g Körpergewicht) ermittelt. Die Messenger-Ribonukleinsäure (mRNA), die die Biosynthese von Oxytozin codiert, wurde durch in-situ-Hybridisierung mit einer spezifischen radioaktiv-markierten Oligodeoxynukleotid-Sonde nach einer etablierten Methode (Fischer D et al, Lactation as a model of naturally reversible hypercorticalism: plasticity in the mechanism governing hypothalamo-pituitary-adrenal activity in the rat, J Clin Invest 96: 1208-1215, 1995), 1995) im hypothalamischen Nucleus paraventricularis (PVN) dargestellt. Behandlungsbedingte Veränderungen in der Transkription des Oxytocin-Gens wurden durch densitometrische Messungen der spezifischen Hybridisierungssignale innerhalb der definierten anatomischen Stukturen quantifiziert.
as §2

In the case of `C[C@]12CC[C@@H]3c4ccc(O)cc4CC[C@H]3[C@@H]1CC[C@H]2O` [17a-Estradiol], the “Induktion von Oxytozin-Bindungsstellen im Myometrium” value ([1]; ovariectomised rats) is reported as “signifikant geringere Wirkung”, the “Serumkonzentrationen von 17b-Estradiol” value [2] is reported as “meßbare Konzentrationen” and the “Stärke des Endometriums (endometriale Proliferation)” value (from here on “Stärke des Endometriums”) [3] is reported as “nicht beeinflussen”.
For `C[C@]12CCC3=C(CCc4cc(O)ccc43)[C@@]13C[C@H]3C[C@H]2O` [15βH,3'H-Cycloprop[14,15]-estra-1,3,5(10),8-tetraen-3,17α-diol], the “Uterusgewichte (x ± SEM)” value [4] was 108 ± 4 mg/100g KG, the “uterotrope Wirkung im Vergleich mit 17b-Estradiol in einer täglichen Dosis von 1 µg” value ([4]; prototype 30 µg daily s.c., 14 days) was “signifikant geringer” and the “Transkription des Oxytozin-Gens im PVN” value [5] was “dosisabhängig stimuliert”. The “Expression von bcl-2 im Gyrus dentatus” value [6] was “dosisabhängigen Stimulation”, the “Retention des erlernten Verhaltensmusters” value [7] was “estrogen-ähnlichen stimulierenden Effekt” and the “Effizienz (Transkription des Reporters), geringer als diese von 17b-Estradiol” value [8] was 10 -fach. The “Dichte von Oxytozin-Rezeptoren in allen untersuchten Hirnstrukturen” value ([1]; VMN and BNST, ovariectomised rats, 50 pM 125I-OVTA) was “signifikanten Anstieg”, the “Dichte von Oxytozin-Rezeptoren im VMN im Vergleich mit 17b-Estradiol” value ([1]; VMN) was “schwächeren Effekt als 17b-Estradiol” and the “Induktion von Oxytozin-Bindungsstellen im Myometrium” value ([1]; ovariectomised rats) was “signifikant geringere Wirkung”. For the same molecule, the “Serumkonzentrationen von 17b-Estradiol” value [2] was “keinen Anstieg”, the “Stärke des Endometriums” value [3] was “nicht beeinflussen” and the “Wirksamkeit im weiblichen Genitaltrakt im Vergleich mit 17a-Estradiol” value ([9]; comparison in words) was “vergleichbar mit derjenigen von 17a-Estradiol”. For the same molecule, the “Wirksamkeit im weiblichen Genitaltrakt, geringer als diese von 17b-Estradiol” value ([9]; fold lower than 17b-Estradiol, from uterotropic daily doses) was ~1000 -fach, the Uterus-Vergrößerung ([9]; ovariectomised rats, 0,01, 0,1 and 1 µg daily s.c. for 7 days (Example 3)) was “keiner Uterus-Vergrößerung” and the “Tagesdosen für signifikante Vergrößerung des Uterus (uterotroper Effekt)” value ([9]; ovariectomised rats, s.c. osmotic minipumps, 7 days, uterus wet weight per 100 g body weight) was 30 µg.
In the case of `C[C@]12CC[C@@H]3c4ccc(O)cc4CC[C@H]3[C@@H]1CC[C@@H]2O` [17b-Estradiol], the “Uterusgewichte (x ± SEM)” value [4] is reported as 187 ± 9 mg/100g KG, the “Serumkonzentrationen von 17b-Estradiol” value [2] is reported as “meßbare Konzentrationen” and the “Stärke des Endometriums” value [3] is reported as “signifikante endometriale Proliferation”.
